Test results reported in patent US9006232B2, “Pyrimidone derivatives” (Mitsubishi Tanabe Pharma Corporation, priority 2009, dated 2015).

Target: bovine cerebral TPK1 (Bos taurus, UniProt A0A059UE90)
Test: Inhibitory activity against P-GS1 phosphorylation by bovine cerebral TPK1
Assay type: biochemical
Conditions: P-GS1 phosphorylation, 41.7 μM [γ-32P] ATP, 25° C., 2 hours; read-out: IC50
Procedure: Inhibitory Activity of the Medicament of the Present Invention Against P-GS1 Phosphorylation by Bovine Cerebral TPK1 […] The phosphorylation was started by adding ATP, and the reaction was conducted at 25° C. for 2 hours, and then stopped by adding 21% perchloric acid on ice cooling. The reaction mixture was centrifuged at 12,000 rpm for 5 minutes and adsorbed on P81 paper (Whatmann), and then the paper was washed four times with 75 mM phosphoric acid, three times with water and once with acetone. The paper was dried, and the residual radioactivity was measured using a liquid scintillation counter.

Sequence of bovine cerebral TPK1 (A0A059UE90 1-419): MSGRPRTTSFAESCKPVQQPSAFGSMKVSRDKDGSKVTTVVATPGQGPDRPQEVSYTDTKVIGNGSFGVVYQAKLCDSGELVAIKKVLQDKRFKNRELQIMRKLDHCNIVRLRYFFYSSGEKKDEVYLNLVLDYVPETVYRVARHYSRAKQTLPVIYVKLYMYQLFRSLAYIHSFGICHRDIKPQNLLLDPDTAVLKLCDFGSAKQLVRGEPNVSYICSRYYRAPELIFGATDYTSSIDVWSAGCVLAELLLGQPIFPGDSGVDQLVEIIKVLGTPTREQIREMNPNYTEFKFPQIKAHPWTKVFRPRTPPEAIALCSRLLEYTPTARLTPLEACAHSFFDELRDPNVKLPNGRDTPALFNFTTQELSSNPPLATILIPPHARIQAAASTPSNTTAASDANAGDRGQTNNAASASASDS

Q: `Cn1c(O[C@H]2CC[C@@H](c3ccc(CO)cc3)CC2)nc(-c2ccncn2)cc1=O` [Compound No. 1.902, 2-[cis-4-(4-Hydroxymethyl-phenyl)cyclohexyloxy]-1-methyl-1H-[4,4′]bipyrimidinyl-6-one] was tested. Which IC50 did it give?
A: The IC50 was 124 nM.

Q: How did the IC50 turn out when `CCCCCCOc1nc(-c2ccncc2)cc(=O)n1C` [2.003, 2-Hexyloxy-3-methyl-6-pyridin-4-yl-3H-pyrimidin-4-one] was run?
A: Its IC50 is 260 nM.

Q: `Cn1c(OC2CCN(c3ccc(CN4Cc5ccccc5C4)cc3)CC2)nc(-c2ccncn2)cc1=O` [1.219, 2-{1-[4-(1,3-Dihydro-isoindol-2-ylmethyl)phenyl]piperidin-4-yloxy}-1-methyl-1H-[4,4′]bipyrimidinyl-6-one] was tested. Which IC50 did it give?
A: The IC50 was 8.4 nM.

Q: How did the IC50 turn out when `Cn1c(OC2CCN(c3ccccc3CN3CCCCC3)CC2)nc(-c2ccncn2)cc1=O` [1.303, 1-Methyl-2-[1-(2-piperidin-1-ylmethyl-phenyl)piperidin-4-yloxy]-1H-[4,4′]bipyrimidinyl-6-one] was run?
A: The IC50 was 51.2 nM.

Q: `Cn1c(OC2CCCC2)nc(-c2ccncn2)cc1=O` [1.804, 2-Cyclopentyloxy-1-methyl-1H-[4,4′]bipyrimidinyl-6-one] was tested. Which IC50 did it give?
A: Its IC50 is 100 nM.

Q: Which IC50 does the source give for `CC(=O)N1CCN(Cc2ccc(N3CCC(Oc4nc(-c5ccncn5)cc(=O)n4C)CC3)cc2)CC1` [1.212, 2-{1-[4-(4-Acetyl-piperazin-1-ylmethyl)phenyl]piperidn-4-yloxy}-1-methyl-1H-[4,4′]bipyrimidinyl-6-one] here?
A: The IC50 was 64.9 nM.

Q: How did the IC50 turn out when `Cn1c(OC2CCN(c3ccc4c(c3)CNC4)CC2)nc(-c2ccncn2)cc1=O` [1.225, 2-[1-(2,3-Dihydro-1H-isoindol-5-yl)piperidin-4-yloxy]-1-methyl-1H-[4,4′]bipyrimidinyl-6-one] was run?
A: Its IC50 is 9.4 nM.

Q: For `Cn1c(OC2CCNCC2)nc(-c2ccncc2F)cc1=O` [1.204, 6-(3-Fluoro-pyridin-4-yl)-3-methyl-2-(piperidin-4-yloxy)-3H-pyrimidin-4-one], which IC50 is on record?
A: Its IC50 is 245 nM.

Q: With `Cn1c(OCC(OC2CCCCO2)c2ccccc2)nc(-c2ccncn2)cc1=O` (centres unmarked) [Compound No. 2.502, 1-Methyl-2-[2-phenyl-2-(tetrahydro-pyran-2-yloxy)ethoxy]-1H-[4,4′]bipyrimidinyl-6-one] as the molecule, how does the IC50 read?
A: Its IC50 is 349 nM.

Q: With `CN1CCN(Cc2ccccc2N2CCC(Oc3nc(-c4ccncn4)cc(=O)n3C)CC2)CC1` [1.302, 1-Methyl-2-{1-[2-(4-methyl-piperazin-1-ylmethyl)phenyl]piperidin-4-yloxy}-1H-[4,4′]bipyrimidinyl-6-one] as the molecule, how does the IC50 read?
A: The IC50 was 14.9 nM.

Q: For `CN1CCN(Cc2ccc([C@H]3CC[C@@H](Oc4nc(-c5ccncn5)cc(=O)n4C)CC3)cc2)CC1` [Compound No. 1.904, 1-Methyl-2-{cis-4-[4-(4-methyl-piperazin-1-ylmethyl)phenyl]cyclohexyloxy}-1H-[4,4′] bipyrimidinyl-6-one], which IC50 is on record?
A: Its IC50 is 30.3 nM.

Q: For `CN1CCN(Cc2cccc(N3CCC(Oc4nc(-c5ccncn5)cc(=O)n4C)CC3)c2)CC1` [1.222, 1-Methyl-2-{1-[3-(4-methyl-piperazin-1-ylmethyl)phenyl]piperidin-4-yloxy}-1H-[4,4′] bipyrimidinyl-6-one], which IC50 is on record?
A: The IC50 was 21.5 nM.

Q: Which IC50 does the source give for `Cn1c(OCCNc2ccccc2)nc(-c2ccncc2)cc1=O` [1.807, 3-Methyl-2-(2-phenylamino-ethoxy)-6-pyridin-4-yl-3H-pyrimidin-4-one] here?
A: Its IC50 is 99 nM.

Q: With `COC(=O)N1CCCC(Oc2nc(-c3ccncn3)cc(=O)n2C)C1` (centres unmarked) [Compound No. 1.102, Methyl 3-(1-methyl-6-oxo-1,6-dihydro-[4,4′]bipyrimidinyl-2-yloxy) piperidine-1-carboxylate] as the molecule, how does the IC50 read?
A: The IC50 was 28.2 nM.

Q: How did the IC50 turn out when `Cn1c(OC2CCCN(c3ccc(C#N)cc3)CC2)nc(-c2ccncn2)cc1=O` (centres unmarked) [Compound No. 1.701, 4-[4-(1-Methyl-6-oxo-1,6-dihydro-[4,4′]bipyrimidinyl-2-yloxy)azepan-1-yl]benzonitrile] was run?
A: Its IC50 is 30.3 nM.

Q: How did the IC50 turn out when `CCN(CCOc1nc(-c2ccncn2)cc(=O)n1C)c1cccc(C)c1` [1.809, 2-[2-(Ethyl-m-tolyl-amino)-ethoxy]-1-methyl-1H-[4,4′] bipyrimidinyl-6-one] was run?
A: Its IC50 is 431 nM.

Q: How did the IC50 turn out when `Cn1c(OCC2(c3ccccc3)OCCO2)nc(-c2ccncn2)cc1=O` [Compound No. 2.501, 1-Methyl-2-(2-phenyl-[1,3]dioxolan-2-ylmethoxy)-1H-[4,4′] bipyrimidinyl-6-one] was run?
A: The IC50 was 386 nM.
